Results on 23 compounds are retold here after ChEMBL document CHEMBL3233011, “Structural modifications of CH(OH)-DAPYs as new HIV-1 non-nucleoside reverse transcriptase inhibitors” (Bioorg Med Chem, 2014).

The structures appear in SMILES notation.

Data set [1] deals with Human immunodeficiency virus 2. Kind of data set: Antiviral activity against HIV2 ROD infected in human MT4 cells assessed as inhibition of viral cytopathogenicity after 5 days by MTT assay. The data set is classed as functional, organism-based. The note with it: Human immunodeficiency virus 2, ISOLATE ROD, MT4, 120 h.
The test system of data set [2] is Human immunodeficiency virus 1. As to the kind of experiment: Antiviral activity against HIV1 harboring RT K103N/Y181C double mutant infected in human MT4 cells assessed as inhibition of viral cytopathogenicity after 5 days by MTT assay. In kind it is functional, organism-based. The note with it: Human immunodeficiency virus 1, MT4, 120 h.
The test system of data set [3] is Human immunodeficiency virus 1. As to the kind of experiment: Antiviral activity against HIV1 3B infected in human MT4 cells assessed as inhibition of viral cytopathogenicity after 5 days by MTT assay. In kind it is functional, organism-based. As to conditions: Human immunodeficiency virus 1, 3B, MT4, 120 h.
The nature of data set [4]: Cytotoxicity against mock-infected human MT4 cells after 5 days by MTT assay. In kind it is cell-based.
The target of data set [5] is Human immunodeficiency virus type 1 reverse transcriptase (Human immunodeficiency virus 1, UniProt Q72547). Kind of data set: Inhibition of wild-type HIV1 reverse transcriptase p66/p51 after 40 mins by spectrophotometry.
In data set [6] the test system is Human immunodeficiency virus 1. Kind of data set: Ratio of delaviridine EC50 to compound EC50 for HIV1 3B infected in human MT4 cells. The data set is classed as functional.
Data set [7] concerns Human immunodeficiency virus 1. As to the kind of experiment: Ratio of nevirapine EC50 to compound EC50 for HIV1 3B infected in human MT4 cells. In kind it is functional.

For `COc1ccc(C(C)(O)c2ccnc(Nc3ccc(C#N)cc3)n2)cc1` (configuration not stated), the EC50 in data set [1] was greater than 35.9 µM; in data set [2], greater than 35.9 µM; in data set [3], 0.346 µM. This compound also gave a cytotoxic concentration (CC50) at 120 h in data set [4] of 35.9 µM.
As for `CC(C)(C)c1ccc(C(C)(O)c2ccnc(Nc3ccc(C#N)cc3)n2)cc1` (configuration not stated), the figures for the EC50 in data set [1], in data set [2] and in data set [3] were greater than 31.8 µM, greater than 31.8 µM and 0.564 µM, respectively. This compound came in with a 50% cytotoxic concentration (CC50) at 120 h in data set [4] of 31.8 µM.
As to `CC(O)(c1ccccc1)c1ccnc(Nc2ccc(C#N)cc2)n1` (configuration not stated), the EC50 was greater than 45.4 µM in data set [1], greater than 45.4 µM in data set [2] and 0.288 µM in data set [3]. The same compound had a half-maximal inhibitory concentration (IC50) in data set [5] of 2 µM. The compound also yielded a CC50 at 120 h in data set [4] of 45.4 µM.
As for `Cc1ccc(C(C)(O)c2ccnc(Nc3ccc(C#N)cc3)n2)cc1` (configuration not stated), the “Ratio EC50” value in data set [6] and in data set [7] was 2 each time. In addition, the concentration giving a half-maximal response (EC50) was greater than 39.9 µM in data set [1], greater than 39.9 µM in data set [2] and 0.067 µM in data set [3]. The compound further displayed an IC50 in data set [5] of 0.16 µM. Also, in data set [4], the CC50 at 120 h was 39.3 µM.
`CC(O)(c1ccc(F)cc1)c1ccnc(Nc2ccc(C#N)cc2)n1` (configuration not stated): the values for the EC50 in data set [1], in data set [2] and in data set [3] were greater than 43.1 µM, greater than 43.1 µM and 2.5 µM, respectively. It took 43.1 µM to reach half-maximal cytotoxicity in data set [4] (CC50 at 120 h).
Consider `CC(O)(c1ccc(Cl)cc1)c1ccnc(Nc2ccc(C#N)cc2)n1` (configuration not stated), for which the results for the EC50 in data set [1], in data set [2] and in data set [3] were greater than 39 µM, greater than 39 µM and 0.317 µM, respectively. Further, it took 39 µM to reach half-maximal cytotoxicity in data set [4] (CC50 at 120 h).
Turning to `CC(O)(c1ccc(Br)cc1)c1ccnc(Nc2ccc(C#N)cc2)n1` (configuration not stated), the 50% effective concentration (EC50) in data set [1] was greater than 28.2 µM; in data set [2] it was greater than 28.2 µM; in data set [3] it was 0.305 µM. Moreover, the CC50 at 120 h in data set [4] came out at 28.2 µM.
Regarding `CC(O)(c1cccc(F)c1)c1ccnc(Nc2ccc(C#N)cc2)n1` (configuration not stated), the concentration for a half-maximal effect (EC50) is greater than 49.6 µM in data set [1], greater than 53.2 µM in data set [2] and 0.201 µM in data set [3]. Also, the midpoint of inhibition in data set [5], the IC50, lay at 0.63 µM. Also, the cytotoxic concentration (CC50) at 120 h in data set [4] was 53.2 µM.
As for `CC(O)(c1cccc(Cl)c1)c1ccnc(Nc2ccc(C#N)cc2)n1` (configuration not stated), the figures for the concentration giving a half-maximal response (EC50) in data set [1], in data set [2] and in data set [3] were greater than 37.5 µM, greater than 37.5 µM and 0.257 µM, respectively. Further, the CC50 at 120 h in data set [4] turned out to be 37.5 µM.
With `CC(O)(c1cccc(Br)c1)c1ccnc(Nc2ccc(C#N)cc2)n1` (configuration not stated), the EC50 was greater than 33.7 µM in data set [1], greater than 33.7 µM in data set [2] and 0.191 µM in data set [3]. In addition, 0.39 µM corresponded to half-maximal inhibition in data set [5] (IC50). Further, the CC50 at 120 h in data set [4] was 33.7 µM.
As to `Cc1cnc(Nc2ccc(C#N)cc2)nc1C(C)(O)c1ccc(F)cc1` (configuration not stated), the EC50 in data set [1] and in data set [3] was greater than 61.5 µM each time. This compound also yielded a cytotoxic concentration (CC50) at 120 h in data set [4] of 61.5 µM.
As for `Cc1cc(C(C)(O)c2ccc(F)cc2)nc(Nc2ccc(C#N)cc2)n1` (configuration not stated), the values for the half-maximal effective concentration (EC50) in data set [1], in data set [2] and in data set [3] were greater than 38.2 µM, greater than 38.2 µM and 3.55 µM, respectively. This compound returned a CC50 at 120 h in data set [4] of 38.2 µM.
Consider `CC(O)(c1ccnc(Nc2ccc(C#N)cc2)n1)c1cccc2ccccc12` (configuration not stated), for which the EC50 is greater than 30.7 µM in data set [1], greater than 30.7 µM in data set [2] and 0.388 µM in data set [3]. In data set [4], this compound came in with a CC50 at 120 h of 30.7 µM.
For the compound `C=CC(O)(c1ccc(Br)cc1)c1ccnc(Nc2ccc(C#N)cc2)n1` (configuration not stated), the values for the EC50 in data set [1], in data set [2] and in data set [3] were greater than 31.7 µM, greater than 31.7 µM and 0.355 µM, respectively. The compound further showed a CC50 at 120 h in data set [4] of 31.7 µM.
Consider `CCC(O)(c1ccc(Br)cc1)c1ccnc(Nc2ccc(C#N)cc2)n1` (configuration not stated), for which the EC50 in data set [1] was greater than 31.3 µM; in data set [2], greater than 31.3 µM; in data set [3], 2.07 µM. In data set [4], this compound displayed a CC50 at 120 h of 31.3 µM.
On to `N#Cc1ccc(Nc2nccc(C(O)(c3ccc(Br)cc3)C3CC3)n2)cc1` (configuration not stated), for which the half-maximal effective concentration (EC50) in data set [1] is greater than 33.2 µM; in data set [2], greater than 33.2 µM; in data set [3], 3.11 µM. For the same compound, it took 33.2 µM to reach half-maximal cytotoxicity in data set [4] (CC50 at 120 h).
Turning to `Cc1cnc(Nc2ccc(C#N)cc2)nc1C(C)(O)c1ccc(C(C)(C)C)cc1` (configuration not stated), the 50% effective concentration (EC50) was greater than 31.1 µM in data set [1], greater than 31.1 µM in data set [2] and 7.21 µM in data set [3]. Besides, the cytotoxic concentration (CC50) at 120 h in data set [4] stood at 31.1 µM.
In the case of `Cc1cc(C(C)(O)c2ccc(C(C)(C)C)cc2)nc(Nc2ccc(C#N)cc2)n1` (configuration not stated), the half-maximal effective concentration (EC50) was greater than 30.4 µM in data set [1], greater than 30.4 µM in data set [2] and 1.25 µM in data set [3]. Besides, the CC50 at 120 h in data set [4] is 30.4 µM.
As to `CC(C)Nc1cccnc1N1CCN(C(=O)c2cc3cc(NS(C)(=O)=O)ccc3[nH]2)CC1` [DELAVIRDINE], the concentration giving a half-maximal response (EC50) in data set [2] was greater than 43.8 µM; in data set [3], 0.81 µM. The compound also displayed a 50% cytotoxic concentration (CC50) at 120 h in data set [4] greater than 43.8 µM.
With `O=C1Nc2ccc(Cl)cc2[C@@](C#CC2CC2)(C(F)(F)F)O1` [EFAVIRENZ], the EC50 in data set [3] turned out to be 0.022 µM. For the same compound, in data set [4], the CC50 at 120 h was greater than 6.3 µM.
`Cc1cc(C#N)cc(C)c1Oc1nc(Nc2ccc(C#N)cc2)nc(N)c1Br` [ETRAVIRINE]: the concentration for a half-maximal effect (EC50) in data set [1] is greater than 27.8 µM.
On to `Cc1ccnc2c1NC(=O)c1cccnc1N2C1CC1` [NEVIRAPINE], for which the EC50 in data set [2] is 0.901 µM. In data set [4], this compound displayed a 50% cytotoxic concentration (CC50) at 120 h greater than 15 µM.
Take `Cc1cn([C@H]2C[C@H](N=[N+]=[N-])[C@@H](CO)O2)c(=O)[nH]c1=O` [ZIDOVUDINE]: in data set [2], the half-maximal effective concentration (EC50) was found to be 0.008 µM. The same compound came in with a half-maximal cytotoxic concentration (CC50) at 120 h in data set [4] greater than 93.6 µM.
